Tested on: RKO p21 uninduced (proliferating) colon adenocarcinoma cells
Test: Alamar Blue cell viability assay, RKO p21 uninduced (proliferating)
Type: cell-based
Conditions: Homo sapiens, Table B3, anti-proliferative/cytotoxic activity, 72 hours, read-out: −log EC50 RKO p21 uninduced (proliferating) (converted)
Experimental: The anti-proliferative/cytotoxic activity of the compounds described herein can be tested on subclones of RKO human colon adenocarcinoma cells (Schmidt et al., Oncogene 19, 2423-2429; 2000) using the Alamar Blue cell viability assay (described in O'Brien et al. Eur J Biochem 267, 5421-5426, 2000). The compounds are dissolved as 10 mM solutions in DMSO and subsequently diluted in semi-logarithmic steps. DMSO dilutions are further diluted 1:100 into Dulbecco's modified Eagle's medium (DMEM) containing 10% fetal calf serum to a final concentration twice as much as the final concentration in the test. RKO subclones are seeded into 96 well flat bottom plates at a density of 4000 cells per well in a volume of 50 μl per well. 24 hours after seeding the 50 μl each of the compound dilutions in DMEM medium are added into each well of the 96 well plate. Each compound dilution is tested as triplicates. Wells containing untreated control cells are filled with 50 μl DMEM medium containing 1% DMSO. The cells are then incubated with the substances for 72 hours at 37° C. in a humidified atmosphere containing 5% carbon dioxide. To determine the viability of the cells, 10 μl of an Alamar Blue solution (Biosource) are added and the fluorescence is measured at an extinction of 544 nm and an emission of 590 nm. For the calculation of the cell viability the emission value from untreated cells is set as 100% viability and the emission rates of treated cells are set in relation to the values of untreated cells. Viabilities are expressed as % values. The Graphpad Prism program is used for the calculation of EC50 values for anti-proliferative/cytotoxic activity out of the obtained dose-response curves.
To determine the cell cycle specific mode of action, subclones of RKO colon adenocarcinoma cells (RKOp21 or RKOp27 as described by Schmidt et al. in Oncogene 19, 2423-2429; 2000) are seeded into 96 well flat bottom plates at a density of 16000 cells per well in a volume of 50 μl per well in DMEM growth medium with 10% FCS containing 10 μM Ponasterone A. 24 hours after seeding the 50 μl each of the compound dilutions in DMEM medium are added into each well of the 96-well plate. Each compound dilution is tested as triplicates. Wells containing untreated control cells are filled with 50 μl DMEM medium containing 1% DMSO. The cells are then incubated with the substances for 72 hours at 37° C. in a humidified atmosphere containing 5% carbon dioxide. To determine the viability of the cells, 10 μl of an Alamar Blue solution (Biosource) are added and the fluorescence is measured at an extinction of 544 nm and an emission of 590 nm. For the calculation of the cell viability the emission value from untreated cells is set as 100% viability and the emission rates of treated cells are set in relation to the values of untreated cells. Viabilities are expressed as % values. The Graphpad Prism program (GraphPad Software, Inc) is used for the calculation of EC50 values out of the obtained dose-response curves. Viability is compared of proliferating cells grown in the absence of the inducer Ponasterone A, versus viability of cells arrested by the expression of ectopic p27Kip1 induced by Ponasterone A.
Representative values for anti-proliferation/cytotoxicity [measured as −log EC50 (mol/l)] determined in the aforementioned assays follow from the following tables B1, B2 and B3, in which the numbers of the compounds correspond to the numbers of the examples.

Which EC50 does the source give for `CCOc1ccc2[nH]c3c(c2c1)C[C@@]1(C)C(=O)N(CCNC(C)(C)C)C(=O)N1[C@@H]3c1cccc(O)c1` (racemic) [Example 156, (3aSR,10RS)-2-(2-tert-Butylamino-ethyl)-6-ethoxy-10-(3-hydroxy-phenyl)-3a-methyl-3a,4,9,10-tetrahydro-2,9,10a-triaza-cyclopenta[b]fluorene-1,3-dione] here?
Its EC50 is ≤ 39.8 nM.

How did the EC50 turn out when `COc1cc2c3c([nH]c2cc1F)[C@@H](c1cccc(O)c1)N1C(=O)N(CCCNC(C)(C)C)C(=O)[C@]1(C)C3` (racemic) [Example 308, (3aSR,10RS)-2-(3-tert-Butylamino-propyl)-7-fluoro-10-(3-hydroxy-phenyl)-6-methoxy-3a-methyl-3a,4,9,10-tetrahydro-2,9,10a-triaza-cyclopenta[b]fluorene-1,3-dione] was run?
Its EC50 is 39.8 to 251 nM.

Which EC50 does the source give for `CN(CCO)CCCN1C(=O)N2[C@H](c3cccc(O)c3)c3[nH]c4ccc(Br)cc4c3C[C@@]2(C)C1=O` (racemic) [Example 370, (3aSR,10RS)-6-Bromo-2-{3-[(2-hydroxy-ethyl)-methyl-amino]-propyl}-10-(3-hydroxy-phenyl)-3a-methyl-3a,4,9,10-tetrahydro-2,9,10a-triaza-cyclopenta[b]fluorene-1,3-dione] here?
The EC50 was ≤ 39.8 nM.

For `COc1cc2c3c([nH]c2cc1F)[C@@H](c1cccc(O)c1)N1C(=O)N(CCN2CC=CC2)C(=O)[C@]1(C)C3` (racemic) [Example 262, (3aSR,10RS)-2-[2-(2,5-Dihydro-pyrrol-1-yl)-ethyl]-7-fluoro-10-(3-hydroxy-phenyl)-6-methoxy-3a-methyl-3a,4,9,10-tetrahydro-2,9,10a-triaza-cyclopenta[b]fluorene-1,3-dione], which EC50 is on record?
The EC50 was 39.8 to 251 nM.

`C[C@@]12Cc3c([nH]c4ccc(OC(F)F)cc34)[C@@H](c3cccc(O)c3)N1C(=O)N(CCCNCCO)C2=O` (racemic) [Example 201, (3aSR,10RS)-6-(1,1-Difluoro-methoxy)-2-[3-(2-hydroxy-ethylamino)-propyl]-10-(3-hydroxy-phenyl)-3a-methyl-3a,4,9,10-tetrahydro-2,2,10a-triaza-cyclopenta[b]fluorene-1,3-dione] was tested. Which EC50 did it give?
Its EC50 is 39.8 to 251 nM.

With `C=CCNCCCN1C(=O)N2[C@H](c3cccc(O)c3)c3[nH]c4cc(F)c(Cl)cc4c3C[C@@]2(C)C1=O` (racemic) [Example 465, (3aSR,10RS)-2-(3-Allylamino-propyl)-6-chloro-7-fluoro-10-(3-hydroxy-phenyl)-3a-methyl-3a,4,9,10-tetrahydro-2,9,10a-triaza-cyclopenta[b]fluorene-1,3-dione] as the molecule, how does the EC50 read?
The EC50 was 39.8 to 251 nM.

With `CC(=O)N1CCN(CCCN2C(=O)N3[C@H](c4cccc(O)c4)c4[nH]c5ccc(Br)cc5c4C[C@@]3(C)C2=O)CC1` (racemic) [Example 220, (3aSR,10RS)-2-[3-(4-Acetyl-piperazin-1-yl)-propyl]-6-bromo-10-(3-hydroxy-phenyl)-3a-methyl-3a,4,9,10-tetrahydro-2,9,10a-triaza-cyclopenta[b]fluorene-1,3-dione] as the molecule, how does the EC50 read?
The EC50 was 39.8 to 251 nM.

With `CCN(C)CCCN1C(=O)N2[C@H](c3cccc(O)c3)c3[nH]c4cc(F)c(OC)cc4c3C[C@@]2(C)C1=O` (racemic) [Example 311, (3aSR,10RS)-2-[3-(Ethyl-methyl-amino)-propyl]-7-fluoro-10-(3-hydroxy-phenyl)-6-methoxy-3a-methyl-3a,4,9,10-tetrahydro-2,9,10a-triaza-cyclopenta[b]fluorene-1,3-dione] as the molecule, how does the EC50 read?
Its EC50 is 39.8 to 251 nM.

For `CCOc1ccc2[nH]c3c(c2c1)C[C@@]1(C)C(=O)N(CCCN2CC=CC2)C(=O)N1[C@@H]3c1cccc(O)c1` (racemic) [Example 222, (3aSR,10RS)-2-[3-(2,5-Dihydro-pyrrol-1-yl)-propyl]-6-ethoxy-10-(3-hydroxy-phenyl)-3a-methyl-3a,4,9,10-tetrahydro-2,9,10a-triaza-cyclopenta[b]fluorene-1,3-dione], which EC50 is on record?
The EC50 was 39.8 to 251 nM.

How did the EC50 turn out when `CCN(CCO)CCCN1C(=O)N2[C@H](c3cccc(O)c3)c3[nH]c4ccc(OC(F)F)cc4c3C[C@@]2(C)C1=O` (racemic) [Example 177, (3aSR,10RS)-6-(1,1-Difluoro-methoxy)-2-{3-[ethyl-(2-hydroxy-ethyl)-amino]-propyl}-10-(3-hydroxy-phenyl)-3a-methyl-3a,4,9,10-tetrahydro-2,9,10a-triaza-cyclopenta[b]fluorene-1,3-dione] was run?
Its EC50 is ≤ 39.8 nM.

For `CCN(CC)CCCN1C(=O)N2[C@H](c3cccc(O)c3)c3[nH]c4ccc(Br)cc4c3C[C@@]2(C)C1=O` (racemic) [Example 228, (3aSR,10RS)-6-Bromo-2-(3-diethylamino-propyl)-10-(3-hydroxy-phenyl)-3a-methyl-3a,4,9,10-tetrahydro-2,9,10a-triaza-cyclopenta[b]fluorene-1,3-dione], which EC50 is on record?
Its EC50 is ≤ 39.8 nM.

For `C[C@@]12Cc3c([nH]c4ccc(Cl)cc34)[C@@H](c3cccc(O)c3)N1C(=O)N(CCCN1CCCC1)C2=O` (racemic) [Example 172, (3aSR,10RS)-6-Chloro-10-(3-hydroxy-phenyl)-3a-methyl-2-(3-pyrrolidin-1-yl-propyl)-3a,4,9,10-tetrahydro-2,9,10a-triaza-cyclopenta[b]fluorene-1,3-dione], which EC50 is on record?
The EC50 was ≤ 39.8 nM.

For `CCN(CCCN1C(=O)N2[C@H](c3cccc(O)c3)c3[nH]c4ccc(OC)cc4c3C[C@@]2(C)C1=O)CCOC` [Example 544, (3aS,10R)-2-{3-[Ethyl-(2-methoxy-ethyl)-amino]-propyl}-10-(3-hydroxy-phenyl)-6-methoxy-3a-methyl-3a,4,9,10-tetrahydro-2,9,10a-triaza-cyclopenta[b]fluorene-1,3-dione], which EC50 is on record?
The EC50 was ≤ 39.8 nM.

For `C=CCNCCCN1C(=O)N2[C@H](c3cccc(O)c3)c3[nH]c4ccc(OCC)cc4c3C[C@@]2(C)C1=O` (racemic) [Example 191, (3aSR,10RS)-2-(3-Allylamino-propyl)-6-ethoxy-10-(3-hydroxy-phenyl)-3a-methyl-3a,4,9,10-tetrahydro-2,9,10a-triaza-cyclopenta[b]bluorene-1,3-dione], which EC50 is on record?
The EC50 was 39.8 to 251 nM.

How did the EC50 turn out when `C[C@@]12Cc3c([nH]c4ccc(Br)cc34)[C@@H](c3cccc(O)c3)N1C(=O)N(CCCNCC1CC1)C2=O` (racemic) [Example 234, (3aSR,10RS)-6-Bromo-2-[3-(cyclopropylmethyl-amino)-propyl]-10-(3-hydroxy-phenyl)-3a-methyl-3a,4,9,10-tetrahydro-2,9,10a-triaza-cyclopenta[b]fluorene-1,3-dione] was run?
The EC50 was ≤ 39.8 nM.

`C[C@@]12Cc3c([nH]c4ccc(OC(F)F)cc34)[C@@H](c3cccc(O)c3)N1C(=O)N(CCCN1CCOCC1)C2=O` (racemic) [Example 236, (3aSR,10RS)-6-(1,1-Difluoro-methoxy)-10-(3-hydroxy-phenyl)-3a-methyl-2-(3-morpholin-4-yl-propyl)-3a,4,9,10-tetrahydro-2,9,10a-triaza-cyclopenta[b]fluorene-1,3-dione] was tested. Which EC50 did it give?
Its EC50 is 39.8 to 251 nM.

How did the EC50 turn out when `C[C@@]12Cc3c([nH]c4ccc(Br)cc34)[C@@H](c3cccc(O)c3)N1C(=O)N(CCN1CCCCC1)C2=O` (racemic) [Example 390, (3aSR,10RS)-6-Bromo-10-(3-hydroxy-phenyl)-3a-methyl-2-(2-piperidin-1-yl-ethyl)-3a,4,9,10-tetrahydro-2,9,10a-triaza-cyclopenta[b]fluorene-1,3-dione] was run?
Its EC50 is ≤ 39.8 nM.

Which EC50 does the source give for `CN1CCN(CCCN2C(=O)N3[C@H](c4cccc(O)c4)c4[nH]c5cc(F)c(Cl)cc5c4C[C@@]3(C)C2=O)CC1` (racemic) [Example 481, (3aSR,10RS)-6-Chloro-7-fluoro-10-(3-hydroxy-phenyl)-3a-methyl-2-[3-(4-methyl-piperazin-1-yl)-propyl]-3a,4,9,10-tetrahydro-2,9,10a-triaza-cyclopenta[b]fluorene-1,3-dione] here?
Its EC50 is 39.8 to 251 nM.

For `C=CCN(C)CCCN1C(=O)N2[C@H](c3cccc(O)c3)c3[nH]c4ccc(OC(F)F)cc4c3C[C@@]2(C)C1=O` (racemic) [Example 184, (3aSR,10RS)-2-[3-(Allyl-methyl-amino)-propyl]-6-(1,1-difluoro-methoxy)-10-(3-hydroxy-phenyl)-3a-methyl-3a,4,9,10-tetrahydro-2,9,10a-triaza-cyclopenta[b]fluorene-1,3-dione], which EC50 is on record?
Its EC50 is 39.8 to 251 nM.

From US8530493B2, “Indolopyridines as Eg5 kinesin modulators” (4SC AG, priority 2006, dated 2013)
